Reference: article PMC11513924, “Addressing the Intracellular Vestibule of the Plasmodial Lactate Transporter PfFNT by p-Substituted Inhibitors Amplifies In Vitro Activity” (Journal of Medicinal Chemistry, 2024)
Changes are numbered by the printed parent chain. Where two headings read alike, the source gives them in different places.

Experiments:
[1] = target: T1, PfFNT (Plasmodium falciparum, UniProt O77389); assay: Fluorescence cross-correlation spectroscopy (FCCS) competition binding to solubilized PfFNT-GFP
T1 construct: expressed in transfected cells; membranes solubilized
T1 sequence (O77389 1-309): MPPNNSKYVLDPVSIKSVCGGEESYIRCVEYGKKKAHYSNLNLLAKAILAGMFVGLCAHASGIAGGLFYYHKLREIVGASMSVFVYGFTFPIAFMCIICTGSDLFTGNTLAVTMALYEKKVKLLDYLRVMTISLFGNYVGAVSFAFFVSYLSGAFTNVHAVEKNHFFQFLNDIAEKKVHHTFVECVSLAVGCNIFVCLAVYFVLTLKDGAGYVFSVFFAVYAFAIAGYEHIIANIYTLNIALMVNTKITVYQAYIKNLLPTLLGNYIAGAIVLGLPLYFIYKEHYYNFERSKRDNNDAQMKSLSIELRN
Protocol: FCCS measurements were conducted and analyzed as before.[20],[30] Briefly, membranes of stably transfected cells expressing PfFNT with a C-terminal GFP (green) were solubilized. BH267.meta 2 fused with DY647 (red) was used as a tracer to monitor the binding of compounds in a competition assay. Assays were done in […] glass bottom plates (cat. no. PS96B-G175, SWISSCI, Switzerland) using a plate reader (Insight, Evotec Technologies, Germany) fitted with a U-Apo300 40× water immersion lens, NA 1.15 (Olympus, Japan). Excitation was done with an argon-ion laser (488 nm) and a helium–neon laser (633 nm). Fluorescence fluctuations were recorded 10 times for 5 s per sample and fitted using FCS+ plus Analyze (PerkinElmer software). Initially, IC50 values were determined from the concentration of the dual labeled complex titrated against a competitor in a range of 100 pM to 100 μM (Figure S1). Then, Ki values were calculated using the Cheng Prusoff equation[31] based on the previously determined KD value for the BH267.meta-DY647 tracer.[20]

[2] = target: T1, PfFNT; assay: Yeast-based PfFNT 14C-lactate transport assay; type: cell-based
Protocol: (§1) Lactate transport functionality of PfFNT was assayed as described before.[4] Briefly, Saccharomyces cerevisiae W303-1A jen1Δady2Δcells[32] (MATa, can1-100, ade2-loc, his3-11-15, leu2-3,-112, trp1-1-1, ura3-1, jen1::kanMX4, ady2::hphMX4) kindly provided by M. Casal expressing PfFNT was grown at 29 °C to an OD600 of 1 (±0.1). Harvested cells were resuspended to an OD600 of 50 (±5) in 50 mM HEPES/Tris, pH 6.8 (±0.1). 10–15 min prior to the assay, 80 μL of yeast suspension were added to 1 μL of DMSO with or without inhibitor in a 1.5 mL reaction tube at 18 °C. Twenty μL of L-lactate solution spiked with [1-^14C]-L-lactate (Hartmann Analytic) was added yielding a 1 mM inward gradient with 0.04 μCi label. Transport was stopped after 30 s by abrupt dilution with 1 mL of ice-cold water, vacuum filtration via GF/C filter membranes (Whatman), and washing with 7 mL of ice-cold water. The radio label was analyzed by liquid scintillation counting in 3 mL of scintillation cocktail (Rotiszint eco plus, Carl Roth) using a Packard TriCarb 2900 TR (PerkinElmer Inc.).
(§2) Transport assays in yeast were done in triplicate biological replicates. At least nine technical replicates were measured around the IC50 value, concentrations with no or full inhibition were determined from at least three technical replicates. EC50-values were determined from 2 to 4 biological replicates. IC50 and EC50 curves were fitted by the Hill equation with variable slope (Graph Pad Prism 10). Error bars denote ± SEM (for n ≥ 3) or ± range (for n = 2). For the EC50-value of 7a the error of the fitting of the curve is given. Cytotoxicity was determined from biological triplicates; error is shown as SEM.

[3] = target: T2, PfFNT G107S (Plasmodium falciparum, UniProt O77389, G107S); assay: Yeast-based 14C-lactate transport assay, PfFNT G107S resistance mutant; type: cell-based
T2 construct: expressed in transfected cells; host or cells: Saccharomyces cerevisiae (yeast transport assay; strain as for wild type, inferred from the shared method)
T2 sequence (O77389 1-309 G107S): T1 sequence (O77389 1-309) with G107S
Protocol: as §1, §2

[4] = Lipophilicity log D7.4 by HPLC (OECD guideline); type: physicochemical; settings: RP-8 HPLC column (ZORBAX Eclipse XDB-C8), pH 7.4
Protocol: Lipophilicity was determined according to the OECD Guidelines for the Testing of Chemicals no. […]. Briefly, the test compounds plus 9 standards (4-acetylpyridine, acetanilide, acetophenone, methyl benzoate, ethyl benzoate, benzophenone, phenyl benzoate, diphenyl ether, triphenylamine) were separated by HPLC with UV detection at 220 nm (Waters HPLC 1525 with tunable absorbance detector 486) using an RP-8 column (Agilent Technologies ZORBAX Eclipse XDB-C8 4.6 × 150 mm, 5 μm) at 20 °C. Eluents A (20 mM ammonium formate, pH 7.4) and B (methanol) were used to generate a gradient profile of 80% A–100% B (0–35 min), 100% B (35–37 min), 100% B–80% A (37–42 min), and 80% A (42–55 min) at a flow rate of 0.8 mL min^–1. The dead time was determined via the injection peak caused by the solvent. The log D7.4 values were calculated by correlating the capacity factors with the known values of the standards via polynomial fitting.

[5] = Microsomal clearance and half-life; type: in vitro ADME, human; settings: 1 μM compound, 0.4 mg mL^–1 protein
Protocol: (§3) Clearance, half-life and plasma protein binding were assayed at TGC LifeScience, Kolkata, India, as described before.[36] Test compounds were incubated in duplicate in 96-well plates at 1 μM concentration with pooled human liver microsomes in 0.1 M phosphate buffer, pH 7.4 (0.4 mg mL^–1 final protein concentration; XenoTech, Lenexa, KS) in the presence and absence of 1 mM NADPH. Metabolism reactions were stopped by addition of 300 μL of ice-cold acetonitrile containing carbamazepine at 0.0236 μg mL^–1 as an internal standard, collection and analysis of the supernatant by LC–MS/MS (Agilent Rapid Resolution HPLC, AB SCIEX 4500 MS). The relative loss of the test compound over time was used to determine the first order rate constant for calculation of the in vitro intrinsic clearance and half-life.[37] Plasma protein binding was determined by ultracentrifugation from pooled human plasma spiked with 5 μM test compound. Aliquots were transferred immediately (total plasma concentration) or after 1 h at 37 °C (protein bound fraction) to ice-cold acetonitrile containing 0.0236 μg mL^–1 carbamazepine as an internal standard, ultracentrifuged for 4 h at 37 °C (Beckman Optima L-80XP), and analyzed by LC–MS/MS (Agilent Rapid Resolution HPLC, AB SCIEX 4500 QTRAP MS).

[6] = test system: Plasmodium falciparum 3D7 parasites; settings: ref Walloch[6] et al. 2020; read-out: EC50 (in vitro, 3D7); cited from earlier work
[7] = test system: P. berghei; design: method as in PMID 37428074; settings: all dosing regimens; cited from earlier work
[8] = test system: albumin; assay: Plasma protein (albumin) binding by ultracentrifugation; type: in vitro ADME; settings: pooled human plasma
Protocol: as §3

[9] = test system: Plasmodium falciparum 3D7 parasites; assay: P. falciparum 3D7 culture growth assay in erythrocytes (in vitro activity); type: cell-based; settings: Plasmodium falciparum, 3D7, Erythrocyte; for activity at 0.05 µM / activity at 0.2 µM / activity at 0.1 µM / EC50: 48 h; for activity at 0.05 µM / activity at 0.2 µM / activity at 0.1 µM: % of untreated control; for activity at 0.05 µM: read-out: % Growth at 50 nM (in vitro, 3D7); for activity at 0.2 µM: 200 nM compound, read-out: % Growth at 200 nM (in vitro, 3D7); for activity at 0.1 µM: 100 nM compound, read-out: % Growth at 100 nM (in vitro, 3D7); for EC50: read-out: EC50 (in vitro, 3D7)
Protocol: The parasitemia was measured using an LSR II FACS (BD Biosciences) as described.[34],[35] Growth was assessed as % of untreated control. EC50 curves were plotted using Graph Pad Prism.
as §2, with “EC50-values were determined from 2 to 4 biological replicates.” left out, “For the EC50-value of 7a the error of the fitting of the curve is given.” left out

[10] = 14C-lactate transport, PfFNT wild type, read-out: IC50 (transport, yeast)
[11] = competition against BH267.meta-DY647 tracer, Cheng Prusoff, read-out: Ki (FCCS, protein)

## O=C(/C=C(\O)C(F)(F)C(F)(F)F)c1cccc(O)c1 [compound 6, 4,4,5,5,5-Pentafluoro-3-hydroxy-1-(3-hydroxyphenyl)pent-2-en-1-one]
[1]
  Ki: 26 ± 3 nM
[2]; [10]
  IC50: 160 ± 10 nM
[3]
  IC50: 6710 nM

## O=C(/C=C(\O)C(F)(F)C(F)(F)F)c1cccnc1 [compound 2, 4,4,5,5,5-Pentafluoro-3-hydroxy-1-(pyridin-3-yl)pent-2-en-1-one, reference compound]
[4]
  chromatographic logD: 1.75
[1]; [11]
  Ki: 35 ± 10 nM
[5]
  human liver microsomes Clint: 3.98 mL min^–1 kg^–1
[5]; human, pooled human liver microsomes, pH 7.4, read-out: human liver microsomes t1/2
  half-life at 1 µM: 5.8 h
[6]
  EC50: 240 ± 10 nM
[7]
  parasites eliminated: > 99.7%
[8]
  unbound fraction in plasma: 8.76%
[8]; 5 μM
  albumin binding: 91.24%
[9]; 50 nM compound
  activity at 0.05 µM: > 90%
[9]; 50 nM compound, 100 minus % growth, read-out: inhibitory activity at 50 nM (in vitro, 3D7)
  inhibition at 0.05 µM: < 10%

## CCCN(C)c1ccc(C(=O)/C=C(\O)C(F)(F)C(F)(F)F)cn1 [7r, 4,4,5,5,5-Pentafluoro-3-hydroxy-1-(6-(methyl(propyl)amino)pyridin-3-yl)pent-2-en-1-one]
[1]
  Ki: 98 ± 11 nM
[2]; [10]
  IC50: 350 ± 80 nM
[9]; 50 nM compound
  activity at 0.05 µM: 114%
[9]
  activity at 0.2 µM: 96%

## O=C(/C=C(\O)C(F)(F)C(F)(F)F)c1ccc(NCc2ccc(F)cc2)nc1 [7p, 4,4,5,5,5-Pentafluoro-1-(6-((4-fluorobenzyl)amino)pyridin-3-yl)-3-hydroxypent-2-en-1-one]
[1]
  Ki: 16 ± 3 nM
[2]; [10]
  IC50: 390 ± 30 nM
[9]; 50 nM compound
  activity at 0.05 µM: 37%
[9]
  activity at 0.1 µM: 7%
  activity at 0.2 µM: 0%

## CC(C)(C)Nc1ccc(C(=O)/C=C(\O)C(F)(F)C(F)(F)F)cn1 [7o, 1-(6-(tert-Butylamino)pyridin-3-yl)-4,4,5,5,5-pentafluoro-3-hydroxypent-2-en-1-one]
[1]
  Ki: 239 ± 101 nM
[2]; [10]
  IC50: 370 ± 40 nM
[9]; 50 nM compound
  activity at 0.05 µM: 97%
[9]
  activity at 0.1 µM: 97%
  activity at 0.2 µM: 93%

## O=C(/C=C(\O)C(F)(F)C(F)(F)C(F)(F)F)c1cccnc1 [3b, 4,4,5,5,6,6,6-Heptafluoro-3-hydroxy-1-(pyridin-3-yl)hex-2-en-1-on]
[1]; [11]
  Ki: 30 ± 3 nM
[2]
  IC50: 340 ± 50 nM
[9]
  EC50: 1170 ± 30 nM

## O=C(/C=C(\O)C(F)(F)C(F)(F)F)c1ccc(NC2CCC2)nc1 [7l, 1-(6-(Cyclobutylamino)pyridin-3-yl)-4,4,5,5,5-pentafluoro-3-hydroxypent-2-en-1-one]
[1]
  Ki: 23 ± 7 nM
[2]; [10]
  IC50: 260 ± 30 nM
[9]; 50 nM compound
  activity at 0.05 µM: 59%
[9]
  activity at 0.1 µM: 16%
  activity at 0.2 µM: 7%

## COC(F)(F)C(F)(F)/C(O)=C/C(=O)c1cccnc1 [3c, 4,4,5,5-Tetrafluoro-3-hydroxy-5-methoxy-1-(pyridin-3-yl)pent-2-en-1-one]
[1]
  Ki: 93 ± 2 nM
[2]; [10]
  IC50: 310 ± 10 nM
[9]; cultures in erythrocytes
  EC50: 3390 ± 10 nM

## O=C(/C=C(\O)C(F)(F)C(F)(F)F)c1ccc(NCc2ccccc2)nc1 [7a, 1-[6-(Benzylamino)pyridin-3-yl]-4,4,5,5,5-pentafluoro-3-hydroxypent-2-en-1-one]
[1]
  Ki: 32 ± 15 nM
[2]; [10]
  IC50: 510 ± 150 nM
[9]; 50 nM compound
  activity at 0.05 µM: 71%
[9]
  activity at 0.1 µM: 32%
  activity at 0.2 µM: 14%
[9]; cultures in erythrocytes
  EC50: 77.9 nM

## COc1cc(CNc2ccc(C(=O)/C=C(\O)C(F)(F)C(F)(F)F)cn2)cc(OC)c1OC [7q, 4,4,5,5,5-Pentafluoro-3-hydroxy-1-(6-((3,4,5-trimethoxybenzyl)amino)pyridin-3-yl)pent-2-en-1-one]
[1]
  Ki: 49 ± 12 nM
[2]; [10]
  IC50: 2110 ± 320 nM
[9]; 50 nM compound
  activity at 0.05 µM: 107%
[9]
  activity at 0.1 µM: 105%
  activity at 0.2 µM: 117%

## O=C(/C=C(\O)C(F)(F)c1ccccc1)c1cccnc1 [3a, 4,4-Difluoro-3-hydroxy-4-phenyl-1-(pyridin-3-yl)but-2-en-1-one]
[1]
  Ki: 5840 ± 960 nM
[2]; [10]
  IC50: 1140 ± 200 nM
[9]; cultures in erythrocytes
  EC50: 36600 ± 11100 nM
